Earlier results as cited in patent publication US20160235839A1, “CALCIUM FLUORIDE COMPOSITIONS” (priority 2013, published 2016).

Test system: chicken red blood cells
Conditions: no cholesterol

Substance: QS21
- Hemolytic activity of QS21 by itself: too hemolytic
